Literature values as cited in patent US20230158084A1, “PROBIOTICS, METABOLITES, AND USES THEREOF” (California Institute of Technology, priority 2018, published 2023).

Conditions: adult mice; cited from earlier work

In the case of `C1=NCCCC1` [1-piperideine], the “conversion to 5AV in the brain” value is listed as “rapidly converted to 5AV” and the “entry into the brain” value is listed as “can enter the brain”.
